Patent publication US20140178318A1, “NOVEL COMPOUNDS” (DSM IP ASSETS B.V., priority 2009, published 2014)

Assay: Comparative example: solubility of BMDBM in 1:1 mixture of C12-15 alkyl benzoate and other UV-filter
Excerpt: Where necessary the mixture was centrifuged in order to obtain a clear supernatant.

Compound: CCCCC(CC)COc1ccc(-c2nc(-c3ccc(OC)cc3)nc(-c3ccc(OCC(CC)CCCC)cc3O)n2)c(O)c1 (stereo not drawn) [BEMT, bis-ethylhexyloxyphenol methoxyphenyl triazine]
- Solubility of BMDBM in C12-15 alkyl benzoate/UV-filter 1:1 (200 mg BMDBM with 1000 mg of 1:1 mixture, supernatant by HPLC after 1 month at RT): 3 wt.-%
- Δ solubility related to cosmetic solvent (BMDBM) (C12-15 alkyl benzoate/UV-filter 1:1): −4 wt.-%
- Δ solubility of BMDBM (C12-15 alkyl benzoate/UV-filter 1:1 versus C12-15 alkyl benzoate): −11 wt.-%
